Assay results from patent US20070071783A1, “Pheromone attractants for the green mirid” (priority 2004, published 2007).
Marks after values point to notes of the source that are not given here.

Key:
[1] = tested on: mullein bug, Campylomma verbasci; conditions: blend released at rates of 91 and 183 μL per day; Smith et al. 1991, McBrien et al. 1994; cited from earlier work
[2] = tested on: green mirid, Creontiades dilutus; test: Field trapping bioassays: rubber septa lures in delta traps; assay type: in vivo; conditions: Experiment 1, soybeans, Cecil Plains; for Mean trap catch: 2 mg lure, mean ± s.e.
Description: A series of trials involving blends of the major component, hexyl hexanoate and the minor component (E)-2 hexenyl hexanoate in various ratios, as coded and presented in Table 1, as well as the single components, were tested in a series of field trapping experiments. After the initial optimisation, two other components (methyl salicylate and (Z)-3 hexenyl acetate), found in both the male and female extracts, were tested by adding them to the optimised blend.
Lures were prepared using rubber septa. Each lure was loaded with 2 mg of the blend with 10% butylated hydroxytoluene (BHT) added as an anti-oxidant. Control lures were loaded with BHT only.
Field experiments were conducted at Cecil Plains (Qld), Narrabri, Tamworth, Mullaley and Armidale (NSW). The experimental designs were Latin Squares with treatment (pheromone blend), trap position and day as the factors. Traps were placed in a grid at intervals of 25-50 m, cleared daily, and rotated to different positions in the Latin Square designs. Delta traps made out of plastic (Corflute®) were used.
This experiment aimed to test blends against individual components of the female sex pheromone. A 4×4 Latin square design with 4 rotation periods, 4 blend locations and 4 treatments was set up in soybeans in Cecil Plains. Traps were located 100 m from each other and cleared every day before rotation. […] They were only caught in traps baited with the blend GM1 at an average of 3.9 males per trap. All insects caught were sexed morphologically and found to be males. […]
A 3×3 Latin Square experiment, replicated at two different sites in mung beans and one site in a slashed lucerne field was set up in Mullaley, NSW. This experiment involved blends GM2, GM12, GM13. In the mung beans at Site 1, blend type was the only significant factor (P<0.01).
Blends GM2, GM12, GM17 and GM19 were tested in a 4×4 Latin Square experiment in lucerne at Piallamore, NSW. […] Analysis of variance on the logarithmically transformed data indicated no significant differences (P>0.05) between the blends.
This experiment aimed at testing the effect of septa loading on trap catches. It involved the use of blend GM2 with a 2, 20 and 40 mg loading respectively. The ratio of hexyl hexanoate to (E)-2-hexenyl acetate in all blends was 5:1. The design was a 3×3 Latin Square set up at two different sites in mung beans at Mullaley, NSW. […] Trap location and day were also non significant (Table 11).
This experiment aimed at testing the effects of methyl salicylate and (Z)-3 hexenyl acetate, identified in both male and female extracts on the optimised blend. The hypothesis was that they might increase the attractiveness of the blend. Blends GM2, GM14, GM15 and GM16 were used in a 4×4 Latin Square experiment conducted in lucerne at Piallamore, NSW. […]

[3] = tested on: green mirid, Creontiades dilutus; test: Attract-and-kill Experiment 1: sprayed-on formulation with added insecticide (methomyl); assay type: in vivo; conditions: pigeon peas, Mullaley, about 2.3% volatiles in carrier, methomyl 0.5%, 5 m of row
Text: The trial was set up in late flowering pigeon peas near Mullaley, NSW. The pheromone components were mixed with the formulation base from Magnet®, the commercial embodiment of the compositions described in WO 02/089577, the contents of which are incorporated herein by reference.
The plant volatile components of Magnet® were not included. The toxicant was methomyl at a concentration of 0.5% active ingredient.
There were four treatments: • 1) Control (no pheromone components added; carrier only) • 2) 12 ml hexyl hexanoate added to 500 ml of carrier • 3) 12 ml (E)-2 hexenyl hexanoate added to 500 ml of carrier • 4) 10 ml hexyl hexanoate plus 2 ml (E)-2 hexenyl hexanoate added to 500 ml carrier
Thus, in treatments 2-4 the final concentration of volatile pheromone components was about 2.3%. Treatment 4 had the two components in the optimum ratio as determined by trapping experiments.
Approximately 100 ml of each mixture was applied to 5 m of row of the pigeon peas, being shaken from a plastic bottle onto the tops of the plants. There were three replicates of each treatment, with buffer zones of 20 m surrounding them. Black plastic weed mat, 90 cm wide, was placed in the furrows on both sides,of the treated rows. It was secured around the bases of the plants using clothes pegs. This was done to facilitate finding dead GM. The treated areas were searched each morning over the next three days, and any dead GM found were sexed. Two pheromone traps, using blend GM2 as previously described, were also operated near the experimental site. At the conclusion of the experiment, five replicate samples using beat sheets were taken in the vicinity of the sprayed regions.

[4] = tested on: Phytocoris californicus; conditions: Millar & Rice 1998; Millar et al. 1997; cited from earlier work
[5] = tested on: Phytocoris relativus; conditions: Millar & Rice 1998; cited from earlier work
[6] = Day 1, standard error in brackets

Structure (SMILES) | Attractiveness of lures in field studies [1] | GM caught in baited traps, average [2] | Mean trap catch [2] | Mean number of female adults found (killed) [3, 6] | Mean number of male adults found (killed) [3, 6] | Mean number of nymphs found (killed) [3, 6] | Mean number of female adults found (killed) ([3]; Day 2) | Mean number of male adults found (killed) ([3]; Day 2) | Mean number of nymphs found (killed) ([3]; Day 2) | other results
C/C=C/COC(=O)CCC [(E)-2-butenyl butyrate] | inactive | – | – | – | – | – | – | – | – | –
CCCCCCOC(=O)CCCCC [GM5, hexyl hexanoate] | – | did not attract any GM | 0.0 ± 0^b | 1.3 (0.3) | 1.3 (0.3) | 0.3 | 0 | 0 | 0 | –
CCCCC/C=C/COC(=O)CCC [(E)-2-octenyl butyrate] | – | – | – | – | – | – | – | – | – | Inhibition of attraction of P. californicus males to traps [4]: inhibited attraction
CCC/C=C/COC(=O)CCCCC [GM6, (E)-2-hexenyl hexanoate] | – | did not attract any GM | 0.0 ± 0^b | 1.0 (1.0) | 3.0 (1.1) | 0.3 (0.3) | 0 | 1.3 | 0 | –
CCCCOC(=O)CCC [butyl butyrate] | inactive | – | – | – | – | – | – | – | – | –
CCCCC/C=C/COC(C)=O [(E)-2-octenyl acetate] | – | – | – | – | – | – | – | – | – | Inhibition of P. relativus males [5]: did not inhibit
